Test results: PMC8998827, “Ligandability Assessment of Human Glutathione Transferase M1-1 Using Pesticides as Chemical Probes” (International Journal of Molecular Sciences, 2022)

What follows are compounds tested against T1, hGSTM1-1 (Homo sapiens, UniProt P09488) (assay: IC50 determination, concentration-response in CDNB-GSH assay). Settings: not given.
T1 sequence (P09488 1-218): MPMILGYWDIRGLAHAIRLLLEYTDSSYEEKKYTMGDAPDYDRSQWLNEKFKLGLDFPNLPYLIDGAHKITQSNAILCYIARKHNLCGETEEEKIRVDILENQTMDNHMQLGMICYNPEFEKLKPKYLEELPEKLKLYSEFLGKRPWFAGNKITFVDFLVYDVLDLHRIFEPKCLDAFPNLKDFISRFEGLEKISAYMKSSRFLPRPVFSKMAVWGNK
Format: biochemical
Design: made in house; host or cells: E. coli
Protocol: (§1) Reduced GST assays were performed by monitoring the formation of the conjugate of CDNB (1 mM) with GSH (2.5 mM) at 340 nm (ε = 9.6 mM^−1cm^−1) for 120 s according to a published method. One unit of enzyme activity is defined as the amount of enzyme that produces 1 μmol of product per minute under the assay conditions.
[…]. The IC50 values were determined using the program GraphPad Prism (GraphPad Software Inc., Version 7, San Diego, CA, USA).
Work on `Cc1nc(N(C)C)nc(OC(=O)N(C)C)c1C` [Pirimicarb, pirimicarb] yielded an IC50 of 17.5 ± 1.75 µM.

Same assay, conditions: 37 °C, pH 6.5; CDNB-GSH assay; read-out: IC50
For `CCCCOCN(C(=O)CCl)c1c(CC)cccc1CC` [Butachlor, butachlor], the IC50 was 236 ± 4.5 µM. With `CC1(C(=O)Nc2ccc(O)c(Cl)c2Cl)CCCCC1` [Fenhexamid, fenhexamid] the IC50 was 278 ± 14.5 µM.

These compounds were tested against T1, hGSTM1-1 (assay: biochemical). Settings: not given.
From the text: Furthermore, the catalytic activity of hGSTM1-1 cannot be regained by extensive dialysis or gel filtration on Sephadex G-25. […] The Kapp calculated by inactivation experiments is in good agreement to that determined by kinetic inhibition analysis.
The rate of inactivation was followed by periodically removing samples for assays of enzymatic activity.
`Cc1nc(N(C)C)nc(OC(=O)N(C)C)c1C` [Pirimicarb, pirimicarb] showed a Kd of 15.5 ± 1.2 µM.

Same assay, conditions: pH 7.4
For `N[C@@H](CCC(=O)N[C@@H](CSCc1ccc([N+](=O)[O-])cc1)C(=O)NCC(=O)O)C(=O)O` [S-nitrobenzyl-GSH, S-nitrobenzyl-glutathione], the “Effect on inactivation of hGSTM1-1 by GS-ESF” value was “diminish the observed rate of enzyme inactivation”. `Cc1nc(N(C)C)nc(OC(=O)N(C)C)c1C` [Pirimicarb, pirimicarb] was tested, and the “Effect on inactivation of hGSTM1-1 by GS-ESF” value was “diminish the observed rate of enzyme inactivation”.

These compounds were tested against T1, hGSTM1-1 (assay: Kinetic inhibition study with pirimicarb (Lineweaver-Burk and secondary plots)). Settings: CDNB as variable substrate; 37 °C, pH 6.5; 1/Vmax app versus [Pirimicarb].
Format: biochemical
Design: made in house; host or cells: E. coli
Protocol: Initial velocities for the catalyzed reaction of the isoenzyme hGSTM1-1 with GSH as a variable substrate were performed at 37 °C in a total volume of 1 mL mixture containing 0.75 μg of the isoenzyme GSTM1-1, 0.1 M potassium phosphate buffer (pH 6.5), 1 mM CDNB and different concentrations of GSH in the range of 0.0175–3.75 mM in the presence of different concentrations of the insecticide pirimicarb (0–40 μM). With CDNB as a variable substrate, the reaction mixture total volume (1 mL) contained 0.75 μg of the isoenzyme GSTM1-1, 0.1 M potassium phosphate buffer (pH 6.5), 1 mM GSH and CDNB in the concentration range of 0.015–1.5 mM in the presence of different concentrations of pirimicarb (0–30 μM). The kinetic parameters were determined using the computer program GraphPad Prism 7.
With `Cc1nc(N(C)C)nc(OC(=O)N(C)C)c1C` [Pirimicarb, pirimicarb] the “Ki' (binding to enzyme-CDNB complex)” value was 44.7 ± 1.14 µM.

Same assay, conditions: GSH as variable substrate
With `Cc1nc(N(C)C)nc(OC(=O)N(C)C)c1C` [Pirimicarb, pirimicarb] the Inhibition pattern was “mixed-type inhibition”.

Same assay, conditions: GSH as variable substrate; 37 °C, pH 6.5
For `Cc1nc(N(C)C)nc(OC(=O)N(C)C)c1C` [Pirimicarb, pirimicarb], the “Ki' (binding to enzyme-GSH complex)” value was 35.97 ± 2.57 µM.

Same assay, conditions: Ki (binding to free enzyme), CDNB as variable substrate; 37 °C, pH 6.5; Slope versus [Pirimicarb]
For `Cc1nc(N(C)C)nc(OC(=O)N(C)C)c1C` [Pirimicarb, pirimicarb], the Ki was 37.7 ± 1.03 µM.

Same assay, conditions: Ki (binding to free enzyme), GSH as variable substrate; 37 °C, pH 6.5
For `Cc1nc(N(C)C)nc(OC(=O)N(C)C)c1C` [Pirimicarb, pirimicarb], the Ki was 24.5 ± 2.86 µM.

Same assay, conditions: towards CDNB
With `Cc1nc(N(C)C)nc(OC(=O)N(C)C)c1C` [Pirimicarb, pirimicarb] the Inhibition pattern was “mixed-type inhibition”.

Target: T1, hGSTM1-1
Test: biochemical
Design: made in house; host or cells: E. coli
Settings: not given
Remark: another data set of the same source
Protocol: as §1
Pesticide screening and inhibition potency evaluation towards hGSTM1-1 were carried out in the assay system described above in the presence of 25 μM pesticide diluted in acetone. During the assay, no measurable pesticide/GSH reaction was detected. The percentage of enzyme inhibition (I) was calculated using the following equation:%I = [(Ro − Ri)/Ro] × 100(3) where Ro is the unit of enzyme activity increase for the uninhibited reaction and Ri is the rate of increase for the inhibited reaction. Both Ri and Ro correspond to the same substrate concentration.
For `CN/C(=N\[N+](=O)[O-])NCc1cnc(Cl)s1` [Clothianidin], the inhibition at 25 µM was 0%. In the case of `N#C/N=C1\SCCN1Cc1ccc(Cl)nc1` [Thiacloprid], the inhibition at 25 µM is reported as 10.7%. Compound `COP(=S)(OC)Oc1c(Cl)cc(C)cc1Cl` [Tolclofos-methyl] has an inhibition at 25 µM of 9.32%. `CNC(=O)Oc1cccc2ccccc12` [Carbaryl] showed an inhibition at 25 µM of 0%. In the case of `CNC(=O)CSP(=O)(OC)OC` [Omethoate], the inhibition at 25 µM is reported as 3.21%.

Same assay, conditions: 25 μM pesticide; CDNB (1 mM)-GSH (2.5 mM) assay; mean of three assays, variation less than 5%
With `Cc1cc(C)c(C2=C(OC(=O)CC(C)(C)C)C3(CCCC3)OC2=O)c(C)c1` [Spiromesifen] the “Inhibition (%)” value was 1.27%. For `CCC(C)(C)C(=O)OC1=C(c2ccc(Cl)cc2Cl)C(=O)OC12CCCCC2` [Spirodiclofen], the “Inhibition (%)” value was 10.20%. In the case of `COP(=O)(OC)OC=C(Cl)Cl` [Dichloros], the “Inhibition (%)” value is reported as 1.48%. For `CCO[PH](=O)O` [Fosetyl-Al], the “Inhibition (%)” value was 0.66%. In the case of Imidachlor, the “Inhibition (%)” value is reported as 10.14%. With `COC(=O)Nc1nc2ccccc2[nH]1` [Carbedazim] the “Inhibition (%)” value was 8.00%. In the case of `CO/C=C(/C(=O)OC)c1ccccc1COc1cccc(C(F)(F)F)n1` [Picoxystrobin], the “Inhibition (%)” value is reported as 10.56%. With Spinosad the “Inhibition (%)” value was 0%. In the case of `O=S1OC[C@@H]2[C@H](CO1)[C@@]1(Cl)C(Cl)=C(Cl)[C@]2(Cl)C1(Cl)Cl` (stereo partly drawn) [alpha Endosulfan], the “Inhibition (%)” value is reported as 16.66%. In the case of `C#CCOc1ccc(CCNC(=O)C(OCC#C)c2ccc(Cl)cc2)cc1OC` (stereo not drawn) [Mandipropamid], the “Inhibition (%)” value is reported as 21.47%.

Same assay, conditions: 25 μM pesticide; CDNB (1 mM)-GSH (2.5 mM) assay; mean of three assays, variation less than 5%; read-out: Inhibition (%)
Work on `COC(=O)Nc1cccc(OC(=O)Nc2cccc(C)c2)c1` [Phenmedipham] yielded an inhibition at 25 µM of 16%. Work on `CCc1cccc(C)c1N(C(=O)CCl)C(C)COC` (stereo not drawn) [Metolachlor] yielded an inhibition at 25 µM of 9.2%. Compound `Cl[C@H]1[C@H](Cl)[C@@H](Cl)[C@@H](Cl)[C@H](Cl)[C@H]1Cl` [Lindane] has an inhibition at 25 µM of 13%. Work on `CSC1=N[C@@](C)(c2ccccc2)C(=O)N1Nc1ccccc1` [Fenamidone] yielded an inhibition at 25 µM of 0%. `CC(C)(C)C(O)C(Oc1ccc(Cl)cc1)n1cncn1` (stereo not drawn) [Triadimenol] showed an inhibition at 25 µM of 0%. `CNC(=O)Oc1cccc2c1OC(C)(C)C2` [Carbofuran] gave an inhibition at 25 µM of 0%. `CN(C)C(=O)Nc1ccc(Cl)c(Cl)c1` [Diuron] showed an inhibition at 25 µM of 15%. `CC1(C)[C@H](C(=O)O[C@H](C#N)c2cccc(Oc3ccccc3)c2)[C@@H]1C=C(Br)Br` [Deltamethrin] gave an inhibition at 25 µM of 0%. `O=[N+]([O-])NC1=NCCN1Cc1ccc(Cl)nc1` [Imidacloprid] showed an inhibition at 25 µM of 0%. For `O=S1OCC2C(CO1)C1(Cl)C(Cl)=C(Cl)C2(Cl)C1(Cl)Cl` (stereo not drawn) [Endosulfan], the inhibition at 25 µM was 14.7%. Work on `CCOC(=O)OC1=C(c2cc(C)ccc2C)C(=O)N[C@]12CC[C@@H](OC)CC2` [Spirotetramat] yielded an inhibition at 25 µM of 29.3%. `Cc1cccc(C)c1N(Cn1cccn1)C(=O)CCl` [Metazachlor, metazachlor] gave an inhibition at 25 µM of 19.7%. `COCC(=O)N(c1c(C)cccc1C)C(C)C(=O)OC` (stereo not drawn) [Metalaxyl] gave an inhibition at 25 µM of 19.8%. With `CCNc1nc(Cl)nc(NC(C)(C)C)n1` [Terbuthylazine] the inhibition at 25 µM was 12%. Compound `CCOP(=S)(OCC)Oc1nc(Cl)c(Cl)cc1Cl` [Chlorpyrifos] has an inhibition at 25 µM of 0%. In the case of `CCCCOCN(C(=O)CCl)c1c(CC)cccc1CC` [Butachlor, butachlor], the inhibition at 25 µM is reported as 35.3%. With `CC(C)C(C(=O)OC(C#N)c1cccc(Oc2ccccc2)c1)c1ccc(Cl)cc1` (stereo not drawn) [Fenvalerate] the inhibition at 25 µM was 0%. Compound `CO/N=C(/C1=NOCCO1)c1ccccc1Oc1ncnc(Oc2ccccc2Cl)c1F` [Fluoxastrobin] has an inhibition at 25 µM of 18.5%. `CC1(C)C(C=C(Cl)Cl)C1C(=O)OCc1cccc(Oc2ccccc2)c1` (stereo not drawn) [Permethrin] was tested, and the inhibition at 25 µM was 11.2%. For `CC(C)NC(=O)N1CC(=O)N(c2cc(Cl)cc(Cl)c2)C1=O` [Iprodione], the inhibition at 25 µM was 19.5%. With `OC(Cc1ccccc1Cl)(Cn1nc[nH]c1=S)C1(Cl)CC1` (stereo not drawn) [Prothioconazole] the inhibition at 25 µM was 26.5%. Compound `CC1(C(=O)Nc2ccc(O)c(Cl)c2Cl)CCCCC1` [Fenhexamid, fenhexamid] has an inhibition at 25 µM of 35.3%. Work on `CCOC(=O)CC(SP(=S)(OC)OC)C(=O)OCC` (stereo not drawn) [Malathion, malathion] yielded an inhibition at 25 µM of 12.7%. Compound `CC1(C)[C@H](C(=O)O[C@H](C#N)c2cccc(Oc3ccccc3)c2)[C@@H]1/C=C(\Cl)C(F)(F)F` (racemic) [Lambda-Cyhalothrin] has an inhibition at 25 µM of 0%. In the case of `Cc1cc(C)nc(Nc2ccccc2)n1` [Pyrimethanil], the inhibition at 25 µM is reported as 7.49%. `CNC(=O)ON=C(C)SC` [Methomyl] was tested, and the inhibition at 25 µM was 20%. Work on `CC1(C)C(C=C(Cl)Cl)C1C(=O)OC(C#N)c1cccc(Oc2ccccc2)c1` (stereo not drawn) [Alpha cypermethrin] yielded an inhibition at 25 µM of 0%. Compound `O=C(NC(=O)c1ccccc1Cl)Nc1ccc(OC(F)(F)F)cc1` [Triflumuron] has an inhibition at 25 µM of 22.7%. `C=CC1(C)OC(=O)N(c2cc(Cl)cc(Cl)c2)C1=O` (stereo not drawn) [Vinclozolin] showed an inhibition at 25 µM of 14.3%. For `CC(C)N(C(=O)CCl)c1ccccc1` [Propachlor, propachlor], the inhibition at 25 µM was 11.2%. With `CO/N=C(/C(=O)OC)c1ccccc1COc1ccccc1C` [Kresoxim-methyl] the inhibition at 25 µM was 14.5%. With `CCC(C)(NC(=O)c1cc(Cl)c(C)c(Cl)c1)C(=O)CCl` (stereo not drawn) [Zoxamide] the inhibition at 25 µM was 20%. `CCNc1nc(Cl)nc(NC(C)C)n1` [Atrazine] was tested, and the inhibition at 25 µM was 28.7%. In the case of `CCOCN(C(=O)CCl)c1c(C)cccc1CC` [Acetochlor, acetochlor], the inhibition at 25 µM is reported as 13.8%. Compound `Cc1nc(N(C)C)nc(OC(=O)N(C)C)c1C` [Pirimicarb, pirimicarb] has an inhibition at 25 µM of 52.3%. `CON=C(C(=O)OC)c1ccccc1CON=C(C)c1cccc(C(F)(F)F)c1` [Trifloxystrobin] was tested, and the inhibition at 25 µM was 2.88%. `O=C(NC(=O)c1c(F)cccc1F)Nc1cc(Cl)c(F)c(Cl)c1F` [Teflubenzuron] showed an inhibition at 25 µM of 11.2%. Compound `O=C(Nc1ccccc1-c1ccc(Cl)cc1)c1cccnc1Cl` [Boscalid] has an inhibition at 25 µM of 20.4%. For `CCOC(=O)Nc1cccc(OC(=O)Nc2ccccc2)c1` [Desmedipham], the inhibition at 25 µM was 0%. For `CCc1cccc(CC)c1N(COC)C(=O)CCl` [Alachlor, alachlor], the inhibition at 25 µM was 32%. `O=C(NC(=O)c1c(F)cccc1F)Nc1ccc(Cl)cc1` [Diflubenzuron] gave an inhibition at 25 µM of 0%. `O=[N+]([O-])c1ccc(Oc2ccc(C(F)(F)F)cc2[N+](=O)[O-])cc1` [Fluorodifen] gave an inhibition at 25 µM of 16.7%.
